Assay results as given in publication PMC9062502 (RSC Advances, 2019).

Key:
[1] = target: xanthine oxidase (Bos taurus, UniProt P80457); assay: Fluorescence-quenching binding to xanthine oxidase; conditions: for Affinity n (number of binding sites per enzyme molecule): double-logarithm formula; for Affinity n (number of binding sites per enzyme molecule) / Affinity K sv (dynamic quenching constant): 25 °C; for Affinity K sv (dynamic quenching constant): xanthine oxidase 1.0 μmol L^−1 in PBS, λex 280 nm, emission 335 nm; for Quenching of xanthine oxidase fluorescence (in words): no binding constant value
[2] = partition coefficient; ref https://pubchem.ncbi.nlm.nih.gov/compound/; cited from earlier work

xanthine oxidase, sequence (P80457 2-1332): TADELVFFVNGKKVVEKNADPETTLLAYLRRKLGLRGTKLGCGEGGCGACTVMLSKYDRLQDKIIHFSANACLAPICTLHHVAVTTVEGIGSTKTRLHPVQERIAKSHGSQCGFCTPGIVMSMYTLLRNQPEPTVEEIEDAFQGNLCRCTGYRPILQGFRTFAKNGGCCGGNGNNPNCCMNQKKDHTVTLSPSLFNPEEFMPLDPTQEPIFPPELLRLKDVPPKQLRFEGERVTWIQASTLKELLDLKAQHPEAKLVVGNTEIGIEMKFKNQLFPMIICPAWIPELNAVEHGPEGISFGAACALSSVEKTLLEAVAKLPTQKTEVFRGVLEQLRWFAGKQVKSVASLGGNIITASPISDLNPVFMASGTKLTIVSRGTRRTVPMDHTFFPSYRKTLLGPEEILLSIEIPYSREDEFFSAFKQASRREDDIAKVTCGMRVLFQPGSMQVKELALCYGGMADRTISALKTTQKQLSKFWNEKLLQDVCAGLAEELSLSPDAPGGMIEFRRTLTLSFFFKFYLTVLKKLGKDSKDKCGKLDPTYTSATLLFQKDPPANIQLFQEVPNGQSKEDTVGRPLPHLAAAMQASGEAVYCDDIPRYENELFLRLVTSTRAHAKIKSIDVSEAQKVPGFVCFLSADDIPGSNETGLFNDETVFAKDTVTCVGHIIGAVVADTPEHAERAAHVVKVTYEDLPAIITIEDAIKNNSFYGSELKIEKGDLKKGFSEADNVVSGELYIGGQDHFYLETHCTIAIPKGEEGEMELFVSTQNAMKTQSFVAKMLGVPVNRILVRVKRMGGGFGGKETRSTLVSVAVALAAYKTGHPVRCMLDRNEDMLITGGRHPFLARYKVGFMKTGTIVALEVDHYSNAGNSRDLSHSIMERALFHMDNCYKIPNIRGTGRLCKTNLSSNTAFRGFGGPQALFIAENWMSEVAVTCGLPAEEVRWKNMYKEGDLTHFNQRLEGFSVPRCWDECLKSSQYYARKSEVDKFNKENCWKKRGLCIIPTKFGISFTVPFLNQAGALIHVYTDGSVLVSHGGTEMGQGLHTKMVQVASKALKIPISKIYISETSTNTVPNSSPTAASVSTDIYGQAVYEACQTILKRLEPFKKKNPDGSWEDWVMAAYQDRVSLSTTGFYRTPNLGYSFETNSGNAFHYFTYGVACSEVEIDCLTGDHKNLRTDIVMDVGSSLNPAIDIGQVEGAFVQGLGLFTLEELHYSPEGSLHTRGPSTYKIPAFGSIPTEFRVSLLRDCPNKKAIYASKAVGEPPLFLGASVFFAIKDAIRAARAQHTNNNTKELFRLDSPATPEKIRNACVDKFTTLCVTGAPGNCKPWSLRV

| Affinity n (number of binding sites per enzyme molecule) [1] | Affinity K sv (dynamic quenching constant) [1] | Quenching of xanthine oxidase fluorescence (in words) [1] | Fold increase of affinity for xanthine oxidase after glycosylation ([1]; aglycone named, 3,7-glycosylation of kaempferol, 3-glycosylation of quercetin, 7-glycosylation of naringenin) [times] | Fold higher affinity for xanthine oxidase than the C2=C3 unsaturated counterpart ([1]; dihydromyricetin versus myricetin, naringenin versus apigenin) [times] | SMILES | X log P3 [2] |
| --- | --- | --- | --- | --- | --- | --- |
| 0.4524 | 0.0285 10^6 |  |  |  | O=c1cc(-c2ccc(O)cc2)oc2cc(O)cc(O)c12 [Apigenin] | 1.7 |
| 1.5312 | 0.1981 10^6 |  |  |  | O=c1cc(-c2ccccc2)oc2cc(O)c(O)c(O)c12 [Baicalein] | 1.7 |
| 1.8782 | 0.3668 10^6 |  |  |  | O=C(O)[C@H]1O[C@@H](Oc2cc3oc(-c4ccccc4)cc(=O)c3c(O)c2O)[C@H](O)[C@@H](O)[C@@H]1O [Baicalin] | 1.1 |
| 0.6025 | 0.0195 10^6 |  |  |  | O=c1cc(-c2ccccc2)oc2cc(O)cc(O)c12 [Chrysin] | 2.1 |
| 1.3663 | 0.0729 10^6 |  |  |  | O=c1c(O)c(-c2ccc(O)c(O)c2)oc2cc(O)ccc12 [Fisetin] | 2.0 |
| 1.3695 | 0.0552 10^6 |  |  |  | O=c1cc(-c2ccccc2)oc2ccccc12 [Flavone] | 3.6 |
| 0.6866 | 0.0147 10^6 |  |  |  | COc1ccc(-c2coc3cc(O)ccc3c2=O)cc1 [Formononetin] | 2.8 |
| 0.9038 | 0.0276 10^6 |  |  |  | O=c1c(O)c(-c2ccccc2)oc2cc(O)cc(O)c12 [Galangin] | 2.3 |
| 1.2571 | 0.0989 10^6 |  |  |  | COc1c(O)cc2oc(-c3ccc(O)cc3)cc(=O)c2c1O [Hispidulin] | 1.7 |
| 1.0535 | 0.0225 10^6 |  |  |  | O=c1c(O)c(-c2ccc(O)cc2)oc2cc(O)cc(O)c12 [Kaempferol] | 1.9 |
| 1.3087 | 0.0926 10^6 |  |  |  | O=c1cc(-c2ccc(O)c(O)c2)oc2cc(O)cc(O)c12 [Luteolin] | 1.4 |
| 2.8371 | 0.9637 10^6 |  |  |  | COc1ccc(-c2cc(=O)c3c(OC)c(OC)c(OC)c(OC)c3o2)cc1OC [Nobiletin] | 3.0 |
| 1.0614 | 0.0477 10^6 |  |  |  | O=c1c(O)c(-c2ccc(O)c(O)c2)oc2cc(O)cc(O)c12 [Quercetin] | 1.5 |
| 1.0022 | 0.1498 10^6 |  |  |  | COc1ccc(-c2cc(=O)c3c(OC)c(OC)c(OC)c(OC)c3o2)cc1 [Tangeretin] | 3.0 |
| 0.6283 | 0.0644 10^6 |  |  |  | COc1c(O)cc2occ(-c3ccc(O)cc3)c(=O)c2c1O [Tectorigenin] | 2.6 |

More lines, now with the values behind:

| SMILES | Affinity n (number of binding sites per enzyme molecule) [1] | Affinity K sv (dynamic quenching constant) [1] | Quenching of xanthine oxidase fluorescence (in words) [1] | Fold increase of affinity for xanthine oxidase after glycosylation ([1]; aglycone named, 3,7-glycosylation of kaempferol, 3-glycosylation of quercetin, 7-glycosylation of naringenin) [times] | Fold higher affinity for xanthine oxidase than the C2=C3 unsaturated counterpart ([1]; dihydromyricetin versus myricetin, naringenin versus apigenin) [times] | X log P3 [2] |
| --- | --- | --- | --- | --- | --- | --- |
| O=c1c(-c2ccc(O)cc2)coc2cc(O)ccc12 [Daidzein] | 1.2554 | 0.0230 10^6 |  |  |  |  |
| O=C1c2c(O)cc(O)cc2O[C@H](c2cc(O)c(O)c(O)c2)[C@H]1O [Dihydromyricetin] | 1.2262 | 0.0470 10^6 |  |  |  | 1.1 |
| Oc1cc(O)c2c(c1)O[C@H](c1ccc(O)c(O)c1)[C@H](O)C2 [EC (2,3-cis), epicatechin] |  |  | not able to quench the fluorescence |  |  |  |
| O=C(O[C@@H]1Cc2c(O)cc(O)cc2O[C@@H]1c1cc(O)c(O)c(O)c1)c1cc(O)c(O)c(O)c1 [EGCG (2,3-cis), (−)-epigallocatechin gallate] | 1.2461 | 0.0226 10^6 |  |  |  |  |
| Oc1cc(O)c2c(c1)O[C@@H](c1cc(O)c(O)c(O)c1)[C@H](O)C2 [GC (2,3-trans), (−)-gallocatechin] |  |  | not able to quench the fluorescence |  |  |  |
| O=c1c(-c2ccc(O)cc2)coc2cc(O)cc(O)c12 [Genistein] | 1.3911 | 0.0537 10^6 |  |  |  | 2.7 |
| COc1ccc(-c2oc3cc(O)cc(O)c3c(=O)c2O)cc1 [Kaempferide] |  |  |  |  |  | 2.2 |
| C[C@@H]1O[C@@H](Oc2cc(O)c3c(=O)c(O[C@@H]4O[C@@H](C)[C@H](O)[C@@H](O)[C@H]4O)c(-c4ccc(O)cc4)oc3c2)[C@H](O)[C@H](O)[C@H]1O [Kaempferitrin] |  |  |  |  |  | −0.1 |
| O=c1c(O)c(-c2cc(O)c(O)c(O)c2)oc2cc(O)cc(O)c12 [Myricetin] | 1.0764 | 0.0294 10^6 |  |  |  | 1.2 |
| O=C1C[C@@H](c2ccc(O)cc2)Oc2cc(O)cc(O)c21 [Naringenin] | 1.2510 | 0.0568 10^6 |  | 73.3 | 4676 | 2.4 |
| C[C@@H]1O[C@@H](O[C@H]2[C@H](Oc3cc(O)c4c(c3)O[C@H](c3ccc(O)cc3)CC4=O)O[C@H](CO)[C@@H](O)[C@@H]2O)[C@H](O)[C@H](O)[C@H]1O [Naringin] | 1.6838 | 0.0846 10^6 |  |  |  | −0.5 |
| O=c1c(-c2ccc(O)cc2)coc2c([C@@H]3O[C@H](CO)[C@@H](O)[C@H](O)[C@H]3O)c(O)ccc12 [Puerarin] | 1.1801 | 0.0290 10^6 |  |  |  | 0.0 |
| C[C@@H]1O[C@@H](OC[C@H]2O[C@@H](Oc3c(-c4ccc(O)c(O)c4)oc4cc(O)cc(O)c4c3=O)[C@H](O)[C@@H](O)[C@@H]2O)[C@H](O)[C@H](O)[C@H]1O [Rutin] | 1.2904 | 0.0532 10^6 |  |  |  | −1.3 |
